Measured values from US11390812B2, “Compound, composition, cured object, optically anisotropic body, and reflective film” (FUJIFILM Corporation, priority 2018, dated 2022).

How the values were obtained:
Type in all cases: physicochemical
[1] = Solubility evaluation in methyl ethyl ketone; conditions: room temperature (23° C.), precipitation concentration
Method: Solubility of each of the compounds in methyl ethyl ketone was evaluated. A solution in which the compound was ultrasonically dissolved or dissolved by heating was produced. […] Solutions were produced at various concentrations for each of the compounds, and solubility of the compound was evaluated according to the following criteria, using a concentration at which the compound was precipitated as a precipitation concentration. As a precipitation concentration became higher, solubility of the compound was more excellent.
A: a precipitation concentration was 20% by mass or more
B: a precipitation concentration was 10% by mass or more and less than 20% by mass
C: a precipitation concentration was less than 10% by mass

[2] = Light fastness test of optically anisotropic film; conditions: film of compound 50 parts with B-2 50 parts; xenon, 5 million lx·h for 50 hours, 63° C., 50% RH, oxygen-blocking; transmittance change at 420 nm
Method: <Light Fastness Evaluation>
(Production of Optically Anisotropic Film)
A coating liquid having the following composition was prepared and applied to a rubbing-treated glass equipped with an alignment film by spin-coating. Each composition was irradiated with ultraviolet rays of 500 mJ/cm^2 through a filter that cuts light having a wavelength of 350 nm or less on a hot plate heated to a temperature until showing a nematic phase, and thereby an optically anisotropic film was produced.
The produced optically anisotropic film was irradiated with light using a Super Xenon Weather Meter SX75 manufactured by Suga Test Instruments Co., Ltd. Using KU-1000100 manufactured by King Seisakusho Co., Ltd. as a UV cut filter, a light fastness test was conducted by irradiation of 5 million l×h of light for 50 hours under an oxygen-blocking condition. A temperature of the test subject (a temperature inside the test device) was set to 63° C. A relative humidity in the test device was 50% RH.
A transmittance change of the optically anisotropic film before and after the light fastness test was measured. Light fastness in a case where a transmittance change at 420 nm was less than 5% was evaluated as A, and light fastness in a case where a transmittance change at 420 nm was 5% or more was evaluated as B. As a transmittance change became small, light fastness was more excellent.

[3] = Measurement of solution absorption spectrum (colorability evaluation); conditions: chloroform solution, 1 cm cell; for λmax: wavelength of maximum light absorption coefficient in the region of 300 nm or more; for λ (1000): wavelength showing light absorption coefficient ε of 1000 in the region of 300 nm or more
Method: <Measurement of Solution Absorption Spectrum (Colorability Evaluation)>
A solution absorption spectrum of each of the compounds was measured using a spectrophotometer UV-3100PC manufactured by Shimadzu Corporation. Using chloroform as a solvent, a solution in which a predetermined amount of the compound was dissolved was measured in a 1 cm cell, and λmax and λ (1000) were calculated from the obtained spectrum and molecular weight. λmax represents a wavelength showing the maximum light absorption coefficient in the region of 300 nm or more, and λ (1000) represents a wavelength showing a light absorption coefficient ε of 1000 in the region of 300 nm or more. It can be evaluated that as wavelengths of λmax and λ (1000) became smaller (as wavelengths became shorter), colorability of the compound was more inhibited.
For example, λmax is preferably 310 nm or less. In addition, λ (1000) is preferably 350 nm or less and more preferably 325 nm or less.

[4] = Measurement of Δn (refractive index anisotropy), wedge-shaped liquid crystal cell; conditions: at 550 nm and 30° C.; for compounds liable to crystallize estimated from extrapolated values of mixtures with other liquid crystals
Excerpt: As a method of measuring the Δn, a method using a wedge-shaped liquid crystal cell described on page 202 of the Liquid Crystal Handbook (edited by Liquid Crystal Handbook Editing Committee, published by Maruzen Co., Ltd.) is generally used. In a case of a compound which is liable to crystallize, it is also possible to carry out evaluation with a mixture thereof with other liquid crystals and to estimate Δn from extrapolated values thereof.
The Δn corresponds to a measurement value at a wavelength of 550 nm at 30° C.
<Measurement of Δn (Refractive Index Anisotropy)>
Δn of each of the compounds was measured by a method using a wedge-shaped liquid crystal cell described on page 202 of the Liquid Crystal Handbook (edited by Liquid Crystal Handbook Editing Committee, published by Maruzen Co., Ltd.). In a case of the compound which is liable to crystallize, evaluation with a mixture thereof with other liquid crystals was carried out and Δn was estimated from extrapolated values thereof. The values in the table represent Δn's at 550 nm and 30° C.
Δn in Comparative Example 1 is a measurement value in a nematic phase.

| Structure (SMILES) | Solubility [1] | Light fastness [2] | λmax [3] [nm] | λ (1000) [3] [nm] | Δn [4] |
| --- | --- | --- | --- | --- | --- |
| C=CC(=O)OCCc1ccc(C#Cc2ccc(COc3ccc(C#Cc4ccc(CCOC(=O)C=C)cc4)cc3)cc2)cc1 [Compound A-2] | C (a precipitation concentration was less than 10% by mass) | A (a transmittance change at 420 nm was less than 5%) | 309 | 327 | 0.34 |
| C=CC(=O)OCCc1ccc(C#Cc2ccc(CCc3ccc(C#Cc4ccc(CCOC(=O)C=C)cc4)cc3)cc2)cc1 [Compound A-1] | C (a precipitation concentration was less than 10% by mass) | A (a transmittance change at 420 nm was less than 5%) | 309 | 320 | 0.30 |
| C=CC(=O)OCCc1ccc(C#Cc2ccc(COc3ccc(C#Cc4ccc(CCOC(=O)C=C)cc4)cc3C)cc2)cc1 [Compound A-3] | B (a precipitation concentration was 10% by mass or more and less than 20% by mass) | A (a transmittance change at 420 nm was less than 5%) | 308 | 327 | 0.34 |
| CC(=O)OCCCCCCCCCCOc1ccc(C#Cc2ccc(OC(=O)c3ccc(C#Cc4ccc(OCCCCCCCCCCOC(C)=O)c(F)c4)cc3)cc2)cc1F [Compound B-1, reference compound] | C (a precipitation concentration was less than 10% by mass) | B (a transmittance change at 420 nm was 5% or more) | 315 | 364 | 0.25 |
| C=CC(=O)OCCc1ccc(C#Cc2ccc(COc3ccc(C#Cc4ccc(CCOC(=O)C=C)cc4)cc3C(=O)OC)cc2)cc1 [Compound A-6] | A (a precipitation concentration was 20% by mass or more) | A (a transmittance change at 420 nm was less than 5%) | 308 | 343 | 0.37 |
| C=CC(=O)OCCc1ccc(C#Cc2ccc(COc3ccc(C#Cc4ccc(CCOC(=O)C=C)cc4)cc3C(=O)OC(C)(C)C)cc2)cc1 [Compound A-7] | A (a precipitation concentration was 20% by mass or more) | A (a transmittance change at 420 nm was less than 5%) | 309 | 339 | 0.33 |
| C=CC(=O)OCCc1ccc(C#Cc2ccc(COc3ccc(C#Cc4ccc(CCOC(=O)C=C)cc4)cc3C(F)(F)F)cc2)cc1 [Compound A-4] | A (a precipitation concentration was 20% by mass or more) | A (a transmittance change at 420 nm was less than 5%) | 309 | 325 | 0.36 |
| C=CC(=O)OCCc1ccc(C#Cc2ccc(COc3ccc(C#Cc4ccc(CCOC(=O)C=C)cc4)cc3C(C)(C)C)cc2)cc1 [Compound A-5] | A (a precipitation concentration was 20% by mass or more) | A (a transmittance change at 420 nm was less than 5%) | 308 | 329 | 0.33 |
